According to patent publication US4824863A, “Antibiotic A80438” (Eli Lilly and Company, priority 1985, dated 1989):
Residues, ends and D or L forms follow the SMILES beside them.

Assays:
coccidiosis = settings: alone; Science 122, 244 (1955); cited from earlier work
[1] = system: Culture A80438 (Streptomyces bobili NRRL 15971); experiment: Antibiotic sensitivity discs on seeded ISP No. 2 agar plates; settings: sensitivity disc
[2] = system: A80438 (Streptomyces bobili NRRL 15971); experiment: Streptomycin inhibition (taxonomic comparison); settings: culture A80438
S. bobili = settings: published descriptions; cited from earlier work
[3] = system: Culture A80438 (Streptomyces bobili NRRL 15971); experiment: Resistance to lysozyme; assay type: cell-based
Description: Resistance to lysozyme was measured by methods recommended by Gordon and Barnett [R. E. Gordon and D. A. Barnett, "Resistance to Rifampin and Lysozyme of Strains of Some Species of Mycobacterium and Nocardia as a Taxonomic Tool", Int. J. Syst. Bacteriol. 27, 176-178 (1977)].

For `O=C(Nc1ccc([N+](=O)[O-])cc1)Nc1ccc([N+](=O)[O-])cc1` [4,4'-dinitrocarbanilide], which Anticoccidial activity (coccidiosis) is on record?
The Anticoccidial activity was “exhibits anticoccidial activity”.

Which “Resistance/sensitivity of culture A80438” value ([1]; 10 units) does the source give for `CC[C@H](C)[C@H](N)C1=N[C@H](C(=O)N[C@@H](CC(C)C)C(=O)N[C@H](CCC(=O)O)C(=O)N[C@H](C(=O)N[C@H]2CCCCNC(=O)[C@H](CC(N)=O)NC(=O)[C@@H](CC(=O)O)NC(=O)[C@H](Cc3cnc[nH]3)NC(=O)[C@@H](Cc3ccccc3)NC(=O)[C@H]([C@@H](C)CC)NC(=O)[C@@H](CCCN)NC2=O)[C@@H](C)CC)CS1` [bacitracin] (HELM PEPTIDE1{[CC[C@H](C)[C@H](N)C1=N[C@H](C(=O)[*:2])CS1].L.[dE].I.K.[NCCC[C@@H](N[*:1])C(=O)[*:2]].I.[dF].H.[dD].N}$PEPTIDE1,PEPTIDE1,5:R3-11:R2$$$V2.0) here?
The value was “sensitive”.

With `CC(=O)OCC1=C(C(=O)O)N2C(=O)[C@@H](NC(=O)Cc3cccs3)[C@H]2SC1` [cephalothin] as the molecule, how does the “Resistance/sensitivity of culture A80438” value ([1]; 30 μg) read?
Its value is “resistant”.

With `CCC[C@@H]1C[C@@H](C(=O)N[C@@H]([C@H]2O[C@H](SC)[C@H](O)[C@@H](O)[C@H]2O)[C@@H](C)O)N(C)C1` [lincomycin] as the molecule, how does the “Resistance/sensitivity of culture A80438” value ([1]; 2 μg) read?
Its value is “resistant”.

Which “Resistance/sensitivity of culture A80438” value ([1]; 15 units) does the source give for `CO[C@H]1C[C@H](O[C@H]2[C@H](C)[C@@H](O[C@@H]3O[C@H](C)C[C@H](N(C)C)[C@H]3O)[C@@H](C)C[C@@]3(CO3)C(=O)[C@H](C)[C@@H](O)[C@@H](C)[C@@H](C)OC(=O)[C@@H]2C)O[C@@H](C)[C@@H]1O` [oleandomycin] here?
Its value is “sensitive”.

Which “Resistance/sensitivity of culture A80438” value ([1]; 10 units) does the source give for `CC1(C)S[C@@H]2[C@H](NC(=O)Cc3ccccc3)C(=O)N2[C@H]1C(=O)O` [penicillin G] here?
Its value is “resistant”.

For `CO[C@H]1/C=C/O[C@@]2(C)Oc3c(C)c(O)c4c(O)c(c(/C=N/N5CCN(C)CC5)c(O)c4c3C2=O)NC(=O)/C(C)=C\C=C\[C@H](C)[C@H](O)[C@@H](C)[C@@H](O)[C@@H](C)[C@H](OC(C)=O)[C@@H]1C` [rifampin], which “Resistance/sensitivity of culture A80438” value ([1]; 5 μg) is on record?
Its value is “sensitive”.

Which Streptomycin inhibition [2] does the source give for `[H]/N=C(/N)N[C@H]1[C@H](O)[C@@H](O)[C@H](O[C@@H]2O[C@@H](C)[C@](O)(C=O)[C@H]2O[C@@H]2O[C@@H](CO)[C@H](O)[C@@H](O)[C@@H]2NC)[C@@H](N/C(N)=N\[H])[C@@H]1O` [streptomycin] here?
The Streptomycin inhibition was “+”.

What about the “Resistance/sensitivity of culture A80438” value ([1]; 10 μg) of the same molecule?
The value was “sensitive”.

And the Streptomycin inhibition (S. bobili)?
The Streptomycin inhibition was “+”.

With `CN(C)C1C(=O)C(C(N)=O)=C(O)C2(O)C(=O)C3=C(O)c4c(O)cccc4C(C)(O)C3CC12` (stereo not shown) [tetracycline] as the molecule, how does the “Resistance/sensitivity of culture A80438” value ([1]; 30 μg) read?
The value was “sensitive”.

Which “Resistance/sensitivity of culture A80438” value ([1]; 10 μg) does the source give for `NC[C@H]1O[C@H](O[C@H]2[C@H](O)[C@@H](O[C@H]3O[C@H](CO)[C@@H](O)[C@H](N)[C@H]3O)[C@H](N)C[C@@H]2N)[C@H](N)C[C@@H]1O` [tobramycin] here?
The value was “sensitive”.

For `CN[C@H](CC(C)C)C(=O)N[C@H]1C(=O)N[C@@H](CC(N)=O)C(=O)N[C@H]2C(=O)N[C@H]3C(=O)N[C@H](C(=O)N[C@H](C(=O)O)c4cc(O)cc(O)c4-c4cc3ccc4O)[C@H](O)c3ccc(c(Cl)c3)Oc3cc2cc(c3O[C@@H]2O[C@H](CO)[C@@H](O)[C@H](O)[C@H]2O[C@H]2C[C@](C)(N)[C@H](O)[C@H](C)O2)Oc2ccc(cc2Cl)[C@H]1O` [vancomycin], which “Resistance/sensitivity of culture A80438” value ([1]; 30 μg) is on record?
Its value is “sensitive”.

Which “Resistance/sensitivity of culture A80438” value ([1]; 10 μg) does the source give for gentamicin here?
The value was “sensitive”.

For lysozyme, which “Resistance/sensitivity of culture A80438 to lysozyme” value [3] is on record?
The value was “sensitive”.

With neomycin as the molecule, how does the “Resistance/sensitivity of culture A80438” value ([1]; 30 μg) read?
Its value is “sensitive”.
